Columns and labels:
MsParA (Ms6939) = target: T1, MsParA (Ms6939) (Mycolicibacterium smegmatis, UniProt A0R7J4); assay: malachite green phosphate release ATPase assay; assay type: biochemical; details: 200 uM ATP, 150 nM protein, 1 mM MgCl2, 50 mM HEPES pH 8.0, 37 C
T1 construct: gene MSMEG_6939; recombinant, E. coli BL21, pET28a (6xHis) or pGEX-4T-1 (GST)
T1 sequence (A0R7J4 1-323): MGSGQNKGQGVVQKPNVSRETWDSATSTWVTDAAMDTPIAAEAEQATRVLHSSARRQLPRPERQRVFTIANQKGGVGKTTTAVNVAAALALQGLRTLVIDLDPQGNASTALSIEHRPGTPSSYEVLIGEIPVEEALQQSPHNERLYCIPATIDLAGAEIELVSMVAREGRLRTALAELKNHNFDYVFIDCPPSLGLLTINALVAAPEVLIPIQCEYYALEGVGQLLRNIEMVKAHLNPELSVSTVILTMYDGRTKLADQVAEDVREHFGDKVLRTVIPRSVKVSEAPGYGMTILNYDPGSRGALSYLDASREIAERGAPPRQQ

MtTAG (Rv1210) = target: T2, MtTAG (Rv1210) (Mycobacterium tuberculosis, UniProt O05311)
T2 construct: gene tagA
T2 sequence (O05311 entry or part of it): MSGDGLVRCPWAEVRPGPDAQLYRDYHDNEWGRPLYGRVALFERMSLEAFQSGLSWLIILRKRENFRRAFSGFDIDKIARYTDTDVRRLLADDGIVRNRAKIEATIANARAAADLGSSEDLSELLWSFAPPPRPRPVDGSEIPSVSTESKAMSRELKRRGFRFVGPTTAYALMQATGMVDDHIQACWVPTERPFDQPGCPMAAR

MsTAG (Ms5082) = target: T3, MsTAG (Ms5082) (Mycolicibacterium smegmatis, UniProt A0R2E4); assay: malachite green phosphate release ATPase assay; assay type: biochemical; details: 200 uM ATP, 150 nM protein, 1 mM MgCl2, 50 mM HEPES pH 8.0, 37 C
T3 construct: gene tag; recombinant, E. coli BL21, pET28a (6xHis) or pGEX-4T-1 (GST)
T3 sequence (A0R2E4 1-209): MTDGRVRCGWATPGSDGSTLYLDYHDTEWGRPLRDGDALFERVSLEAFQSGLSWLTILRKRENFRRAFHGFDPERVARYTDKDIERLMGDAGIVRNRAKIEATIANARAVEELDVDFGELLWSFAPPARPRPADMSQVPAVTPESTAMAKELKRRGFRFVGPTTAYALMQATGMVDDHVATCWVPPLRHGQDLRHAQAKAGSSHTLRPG

## Nc1ncnc2c1ncn2[C@@H]1O[C@H](COP(=O)(O)OP(=O)(O)OP(=O)(O)O)[C@@H](O)[C@H]1O [ATP]
MsParA (Ms6939)
  malachite green phosphate release ATPase assay: verifying that MsParA had ATPase activity (Fig. 5A)
MtTAG (Rv1210)
  malachite green phosphate release ATPase assay: MtTAG had an obvious ATPase activity but Rv1210-K78A, its mutant variant, did not
MsTAG (Ms5082)
  malachite green phosphate release ATPase assay: MsTAG was found to have stronger ATPase activity than MsParA under the same conditions

Source: article PMC3366916, “Characterization of a Conserved Interaction between DNA Glycosylase and ParA in Mycobacterium smegmatis and M. tuberculosis” (PLoS ONE, 2012)
